# Measured values as given in US20230248741A1, “Compositions and Methods for Lowering Triglycerides in a Subject with Reduced Kidney Function and Diabetes Mellitus” (Amarin Pharmaceuticals Ireland Limited, priority 2018, published 2023).
# Tests used:
# Type in all cases: in vivo, human
# [1] = system: patients with eGFR <90 mL/min/1.73 m^2 for ≥3 months and hsCRP ≥2.0 mg/L; assay: ANCHOR post-hoc (eGFR <90, hsCRP ≥2.0 mg/L): renal parameters; settings: 4 g/day
# Protocol: CVD-related (e.g., atherogenic) parameters were analyzed in a post-hoc study of 152 patients from the multi-center, placebo-controlled, randomized double-blind, 12-week study described in Example 1. These 152 patients have reduced kidney reduced function (e.g., eGFR<90 mL/min/1.73 m^2 for ≥3 months) and hsCRP≥2.0 mg/L.
# [2] = system: patients with chronic kidney disease (eGFR <60 mL/min/1.73 m^2 for ≥3 months); assay: ANCHOR post-hoc: lipid and lipoprotein parameters, oxidation and inflammation markers
# Protocol: CVD-related (e.g., atherogenic) parameters were analyzed in a post-hoc study of 55 patients from the multi-center, placebo-controlled, randomized double-blind, 12-week study described in Example 1. These 55 patients have chronic kidney disease (e.g., eGFR<60 mL/min/1.73 m^2 for ≥3 months). There was no lower limit of eGFR specified.
# Subjects: 19 patients were randomized to E-EPA and 36 patients were randomized to placebo. One patient in each group discontinued and was excluded from efficacy analyses (but not safety analyses). EPA levels in plasma and RBC were measured in 23 of the 55 patients. These measurements were taken on 7 of the patients randomized to E-EPA and on 16 of the patients that were randomized to the placebo.
# The primary objective of this post-hoc study, which is based on an intention to treat, was to determine if and how 4 g daily of >96% E-EPA affects patients with stage 3 chronic kidney disease (e.g., eGFR<60 mL/min/1.73 m^2 for ≥3 months). The secondary objective was to determine if and how 4 g daily of >96% E-EPA, compared to a placebo, affected CVD-related parameters in patients with a high risk of CVD and fasting TG levels ≥[…] and <500 mg/dL, despite LDL-C goal on statin therapy. These CVD-parameters include lipid levels, lipoprotein levels, and inflammatory markers, such as TC, LDL-C, HDL-C, VLDL-C, VLDL-TG, RLP-C, non-HDL-C, Apo B, Apo C-III, Lp-PLA, hsCRP, and ox-LDL, and in plasma and RBC EPA concentration. CVD-parameters were analyzed for median difference in percent change from baseline to week 12 in subjects receiving 4 g/day of E-EPA and those receiving the placebo.
# (§1) Analysis: The median difference in percent change from baseline between 4 g/day of E-EPA and placebo for the primary efficacy variable and additional assessments were estimated using the Hodges-Lehmann method (P values from the Wilcoxon rank-sum test for treatment comparisons). Using the Hodges-Lehmann method, departures from normal distribution were observed; for normally distributed parameters, an analysis of covariance model was used with least squares (LS) means and standard errors (SE). Missing values were imputed using the last-observation-carried-forward method. For all post hoc analyses, the alpha for statistical significance was 0.05.
# [3] = system: patients with chronic kidney disease (eGFR <60 mL/min/1.73 m^2 for ≥3 months); assay: ANCHOR post-hoc (CKD): renal parameters and TEAEs
# Protocol: as §1, with “CVD-related (e.g., atherogenic) parameters were analyzed in a post-hoc study of 55 patients from the multi-center, placebo-controlled, randomized double-blind, 12-week study described in Example 1. These 55 patients have chronic kidney disease (e.g., eGFR<60 mL/min/1.73 m^2 for ≥3 months). There was no lower limit of eGFR specified. Analysis:” for “Analysis:”
# [4] = 4 g/day group (n = 17), before treatment
# [5] = 4 g/day group, before treatment
# [6] = 4 g/day, week 12, Hodges-Lehmann
smiles,measurement,setting,value
"CC/C=C\C/C=C\C/C=C\C/C=C\C/C=C\CCCC(=O)OCC [E-EPA, ethyl eicosapentaenoate]",serum creatinine after 12 weeks,"[1]; before 0.9 mg/dL, no change",0.9 mg/dL
same,albumin after 12 weeks,"[1]; before 4.5 g/dL, no statistically significant change",4.4 g/dL
same,eGFR after 12 weeks,[1]; increase from 72.4,78.5 mL/min/1.73 m^2
same,"Ox-LDL Baseline, median","[2]; 4 g/day group (n = 8), before treatment",48.6 u/L
same,"RLP-C Baseline, median","[2]; 4 g/day group (n = 9), before treatment",17.0 mg/dL
same,"Apo C-III Baseline, median","[2]; 4 g/day group (n = 13), before treatment",15.6 mg/dL
same,"Apo B Baseline, median",[2]; [4],87.0 mg/dL
same,"Lp-PLA2 Baseline, median",[2]; [4],173.0 ng/mL
same,"hsCRP Baseline, median",[2]; [4],1.9 mg/L
same,"TGs Baseline, median","[2]; 4 g/day group (n = 18), before treatment",268.5 mg/dL
same,"HDL-C Baseline, median",[2]; [5],35.0 mg/dL
same,"LDL-C Baseline, median",[2]; [5],76.0 mg/dL
same,"Non-HDL-C Baseline, median",[2]; [5],124.5 mg/dL
same,"TC Baseline, median",[2]; [5],159.5 mg/dL
same,"VLDL-C Baseline, median",[2]; [5],42.0 mg/dL
same,"VLDL-TGs Baseline, median",[2]; [5],194.0 mg/dL
same,reduction of TG compared to placebo,"[2]; 4 g/day, 12 weeks, P=0.007",at least 16.9%
same,median TGs reduction from baseline,"[2]; 4 g/day, CKD cohort",−16.9%
same,"Apo B Change From Baseline, %, median","[2]; 4 g/day, week 12",−7.2%
same,"Apo B End of Treatment, median","[2]; 4 g/day, week 12",83.0 mg/dL
same,"Apo C-III Change From Baseline, %, median","[2]; 4 g/day, week 12",−7.3%
same,"Apo C-III End of Treatment, median","[2]; 4 g/day, week 12",13.9 mg/dL
same,"HDL-C Change From Baseline, %, median","[2]; 4 g/day, week 12",0.9%
same,"HDL-C End of Treatment, median","[2]; 4 g/day, week 12",35.5 mg/dL
same,"LDL-C Change From Baseline, %, median","[2]; 4 g/day, week 12",−6.5%
same,"LDL-C End of Treatment, median","[2]; 4 g/day, week 12",70.5 mg/dL
same,"Lp-PLA2 Change From Baseline, %, median","[2]; 4 g/day, week 12",−12.7%
same,"Lp-PLA2 End of Treatment, median","[2]; 4 g/day, week 12",150.0 ng/mL
same,"Non-HDL-C Change From Baseline, %, median","[2]; 4 g/day, week 12",−8.4%
same,"Non-HDL-C End of Treatment, median","[2]; 4 g/day, week 12",116.0 mg/dL
same,"Ox-LDL Change From Baseline, %, median","[2]; 4 g/day, week 12",−9.5%
same,"Ox-LDL End of Treatment, median","[2]; 4 g/day, week 12",45.1 u/L
same,"TC Change From Baseline, %, median","[2]; 4 g/day, week 12",−8.1%
same,"TC End of Treatment, median","[2]; 4 g/day, week 12",151.5 mg/dL
same,"TGs Change From Baseline, %, median","[2]; 4 g/day, week 12",−17.1%
same,"TGs End of Treatment, median","[2]; 4 g/day, week 12",230.5 mg/dL
same,"VLDL-C Change From Baseline, %, median","[2]; 4 g/day, week 12",−16.3%
same,"VLDL-C End of Treatment, median","[2]; 4 g/day, week 12",36.5 mg/dL
same,"VLDL-TGs Change From Baseline, %, median","[2]; 4 g/day, week 12",−25.8%
same,"VLDL-TGs End of Treatment, median","[2]; 4 g/day, week 12",168.5 mg/dL
same,"hsCRP Change From Baseline, %, median","[2]; 4 g/day, week 12",−16.9%
same,"hsCRP End of Treatment, median","[2]; 4 g/day, week 12",2.1 mg/L
same,Apo B Median Difference in % Change From Baseline vs. Placebo,[2]; [6],"−18.7, 0.0002%"
same,Apo C-III Median Difference in % Change From Baseline vs. Placebo,[2]; [6],"−15.0, 0.0168%"
same,HDL-C Median Difference in % Change From Baseline vs. Placebo,[2]; [6],"−8.3, 0.0362%"
same,LDL-C Median Difference in % Change From Baseline vs. Placebo,[2]; [6],"−20.8, 0.0086%"
same,Lp-PLA2 Median Difference in % Change From Baseline vs. Placebo,[2]; [6],"−17.5, 0.0068%"
same,Non-HDL-C Median Difference in % Change From Baseline vs. Placebo,[2]; [6],"−21.5, <0.0001%"
same,Ox-LDL Median Difference in % Change From Baseline vs. Placebo,[2]; [6],"−25.7, 0.0068%"
same,RLP-C Median Difference in % Change From Baseline vs. Placebo,[2]; [6],"−38.8, 0.0295%"
same,TC Median Difference in % Change From Baseline vs. Placebo,[2]; [6],"−18.2, <0.0001%"
same,"TGs Median Difference in % Change From Baseline, Icosapent Ethyl 4 g/day vs. Placebo",[2]; [6],"−16.9, 0.0074%"
same,VLDL-C Median Difference in % Change From Baseline vs. Placebo,[2]; [6],"−28.7, 0.0026%"
same,VLDL-TGs Median Difference in % Change From Baseline vs. Placebo,[2]; [6],"−25.6, 0.0020%"
same,hsCRP Median Difference in % Change From Baseline vs. Placebo,"[2]; 4 g/day, week 12, Hodges-Lehmann, P 0.1209","−25.0, 0.1209%"
same,"RLP-C Change From Baseline, %, median","[2]; 4 g/day, week 12, n = 9",−38.9%
same,"RLP-C End of Treatment, median","[2]; 4 g/day, week 12, n = 9",10.0 mg/dL
same,"BUN at week 12, median (IQR)",[3]; 4 g/day,22.5 (11.0) mg/dL
same,"Nausea, nasopharyngitis, and arthralgia",[3]; 4 g/day,not reported by any patients
same,"eGFR at week 12, median (IQR)",[3]; 4 g/day,56.0 (12.9) mL/min/1.73 m^2
same,"serum creatinine at week 12, median (IQR)",[3]; 4 g/day,1.2 (0.4) mg/dL
same,"serum creatinine, BUN, or eGFR from baseline to week 12 compared to placebo",[3]; 4 g/day,did not produce significant changes
same,"BUN at baseline, median (IQR)",[3]; [5],24.5 (12.0) mg/dL
same,"eGFR at baseline, median (IQR)",[3]; [5],55.0 (13.8) mL/min/1.73 m^2
same,"serum creatinine at baseline, median (IQR)",[3]; [5],1.2 (0.3) mg/dL
same,patients with diarrhea,"[3]; 4 g/day, 2 patients",10.5%
same,patients with TEAE,"[3]; 4 g/day, 11 of 19 patients",57.9%
same,serum albumin,"[3]; 4 g/day, 12 weeks",no significant median changes from baseline
same,"eGFR, median difference in change from baseline compared with placebo","[3]; 4 g/day, P=0.1983",−7.8%
same,"serum creatinine, median difference in change from baseline compared with placebo","[3]; 4 g/day, P=0.1983",6.5%
same,"BUN, median difference in change from baseline compared with placebo","[3]; 4 g/day, P=0.5291",5.5%
same,"BUN, median difference in change from baseline compared with placebo","[3]; 4 g/day, P=0.5471",1.0 mg/dL
